In PMC8421423, “Cellular model system to dissect the isoform-selectivity of Akt inhibitors” (Nature Communications, 2021):
Several values for one entry are separate records, joined by “and”; a condition that tells them apart may be missing. Identical values can stand only once. Like-named read-outs stand apart in the source and are kept apart here.

Experiments:
Akt3 = Akt3 (Homo sapiens, UniProt Q9Y243); test: STK HTRF KinEASE activity-based assay (IC50)
parental Ba/F3 cells = test: CellTiter-Glo cell viability assay; format: cell-based, murine
Akt2 = Akt2 (Homo sapiens, UniProt P31751); test: STK HTRF KinEASE activity-based assay (IC50)
Description: (§1) The biochemical half maximal inhibitory concentrations (IC50) were determined with the STK HTRF KinEASE assay (Cisbio) according to the manufactor’s instructions. Briefly: 5 µL Kinase solution and 2.5 µL inhibitor solution (8% DMSO in HTRF buffer) were incubated for 1 h before the reaction was started by addition of 2.5 µL starting solution containing ATP and substrate peptide. […] After reaction completion (Akt1: 60 min, Akt2: 20 min, Akt3: 15 min), 10 µL of stop solution were added. […] The quotient of both intensities were recorded at eight different inhibitor concentrations and data fit to a Hill 4-parameter equation with Quattro software suite (Quattro Research GmbH, Martinsried, Germany). Each reaction was performed in duplicates and at least three independent determinations of each IC50 were made.

Ba/F3^myr-Akt2 cells = test: CellTiter-Glo cell viability assay
Ba/F3^myr-Akt3 cells = test: CellTiter-Glo cell viability assay; conditions: for Log ratio EC50 [Akt] / EC50 [Akt], Akt3 / Akt2: cell viability assay Ba/F3 myr-Akt cells, log units
Ba/F3^myr-Akt1 cells = test: CellTiter-Glo cell viability assay; conditions: for Log ratio EC50 [Akt] / EC50 [Akt], Akt1 / Akt2: cell viability assay Ba/F3 myr-Akt cells, log units
Description: On day 0, cells were plated into white 384-well cell culture plates (Greiner Bio-One) using a Multidrop reagent dispenser (Thermo Fisher Scientific) at cell numbers that ensure linear and optimal luminescent signal intensity (Ba/F3myr-Akt1: 600 cells/well, Ba/F3myr-Akt2: 800 cells/well, Ba/F3myr-Akt3: 800 cells/well). […] Cell viability was analyzed on day 4 using the CellTiter-Glo Assay (Promega) as per the manufacturer’s instructions. […] All experimental points were measured in duplicates for each plate and were replicated in at least three plates.

Akt1 = Akt1 (Homo sapiens, UniProt P31749); test: STK HTRF KinEASE activity-based assay (IC50); conditions: for Log ratio IC50 [Akt] / IC50 [Akt], Akt1 / Akt2: biochemical activity based assay, log units
Description: as §1

[1] = HTRF IC50 Akt3, Mean, mean of replicates
[2] = HTRF IC50 Akt3, individual determinations, single replicates
[3] = IC50 Akt3, HTRF, ATP at KM, 1 h preincubation
[4] = read-out: HTRF IC50 Akt3, individual determinations, single replicates
[5] = Mus musculus, BaF3, parental cells, single replicates, read-out: CTG BaF3, individual determinations
[6] = parental cells, single replicates, read-out: CTG BaF3, individual determinations
[7] = HTRF IC50 Akt2, individual determinations, single replicates
[8] = IC50 Akt2, HTRF, ATP at KM, 1 h preincubation
[9] = Mus musculus, read-out: CTG BaF3myr-Akt2, Mean, mean of replicates
[10] = Mus musculus, read-out: CTG BaF3myr-Akt2, individual determinations, single replicates
[11] = read-out: CTG BaF3myr-Akt2, individual determinations, single replicates
[12] = Mus musculus, read-out: CTG BaF3myr-Akt3, Mean, mean of replicates
[13] = Mus musculus, read-out: CTG BaF3myr-Akt3, individual determinations, single replicates
[14] = read-out: CTG BaF3myr-Akt3, individual determinations, single replicates
[15] = Mus musculus, read-out: CTG BaF3myr-Akt1, Mean, mean of replicates
[16] = Mus musculus, read-out: CTG BaF3myr-Akt1, individual determinations, single replicates
[17] = Mus musculus, read-out: EC50 BaF3myr-Akt1, CTG
[18] = read-out: CTG BaF3myr-Akt1, individual determinations, single replicates
[19] = HTRF IC50 Akt1, Mean, mean of replicates
[20] = HTRF IC50 Akt1, individual determinations, single replicates
[21] = IC50 Akt1, HTRF, ATP at KM, 1 h preincubation
[22] = Mus musculus, BaF3, parental cells, mean of replicates, read-out: CTG BaF3, Mean
[23] = HTRF IC50 Akt2, Mean, mean of replicates

Akt1, sequence (P31749 whole entry): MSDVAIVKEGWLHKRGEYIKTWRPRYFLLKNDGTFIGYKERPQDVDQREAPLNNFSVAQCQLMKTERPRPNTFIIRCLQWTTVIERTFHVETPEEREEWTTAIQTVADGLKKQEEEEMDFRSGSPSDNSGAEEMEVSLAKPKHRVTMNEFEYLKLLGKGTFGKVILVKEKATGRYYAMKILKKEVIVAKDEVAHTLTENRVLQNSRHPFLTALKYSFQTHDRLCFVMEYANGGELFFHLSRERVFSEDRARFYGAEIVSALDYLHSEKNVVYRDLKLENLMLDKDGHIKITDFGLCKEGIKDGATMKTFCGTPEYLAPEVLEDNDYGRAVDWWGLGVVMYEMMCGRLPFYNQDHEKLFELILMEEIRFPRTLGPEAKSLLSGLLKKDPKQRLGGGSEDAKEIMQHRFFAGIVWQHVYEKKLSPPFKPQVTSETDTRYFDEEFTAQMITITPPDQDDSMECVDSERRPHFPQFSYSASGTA
Akt2, sequence (P31751 whole entry): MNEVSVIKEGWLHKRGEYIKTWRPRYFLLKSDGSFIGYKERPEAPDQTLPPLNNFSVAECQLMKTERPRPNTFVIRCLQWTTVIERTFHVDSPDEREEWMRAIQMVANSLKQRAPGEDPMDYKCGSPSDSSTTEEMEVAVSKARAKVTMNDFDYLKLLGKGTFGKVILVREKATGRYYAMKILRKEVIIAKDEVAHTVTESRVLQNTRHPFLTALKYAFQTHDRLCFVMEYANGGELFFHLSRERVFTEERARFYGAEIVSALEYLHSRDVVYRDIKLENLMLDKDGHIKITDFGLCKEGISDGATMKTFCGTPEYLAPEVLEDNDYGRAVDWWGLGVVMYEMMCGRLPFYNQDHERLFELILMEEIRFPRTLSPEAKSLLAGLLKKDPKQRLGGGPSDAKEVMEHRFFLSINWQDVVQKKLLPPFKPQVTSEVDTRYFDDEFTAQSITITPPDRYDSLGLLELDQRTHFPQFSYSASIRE
Akt3, sequence (Q9Y243 whole entry): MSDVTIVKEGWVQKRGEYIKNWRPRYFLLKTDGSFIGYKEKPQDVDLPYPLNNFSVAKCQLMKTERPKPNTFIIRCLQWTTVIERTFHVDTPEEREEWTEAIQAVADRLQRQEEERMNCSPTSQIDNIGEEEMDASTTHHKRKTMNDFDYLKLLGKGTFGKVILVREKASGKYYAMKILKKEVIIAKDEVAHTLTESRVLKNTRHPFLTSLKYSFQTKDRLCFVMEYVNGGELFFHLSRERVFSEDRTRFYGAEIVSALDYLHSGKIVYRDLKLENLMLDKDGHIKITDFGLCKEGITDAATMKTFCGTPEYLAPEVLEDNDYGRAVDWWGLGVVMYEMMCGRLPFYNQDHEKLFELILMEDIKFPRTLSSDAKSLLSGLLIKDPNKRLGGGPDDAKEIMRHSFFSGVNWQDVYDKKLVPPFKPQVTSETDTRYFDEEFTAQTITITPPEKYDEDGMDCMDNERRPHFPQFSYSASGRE

Structure (SMILES)	EC50 (Ba/F3^myr-Akt2 cells; [9]) [µM]	EC50 (Ba/F3^myr-Akt2 cells; [11])	EC50 (Ba/F3^myr-Akt3 cells; [12]) [µM]	EC50 (Ba/F3^myr-Akt3 cells; [13]) [µM]	EC50 (Ba/F3^myr-Akt3 cells; [14])	EC50 (Ba/F3^myr-Akt1 cells; [15]) [µM]	EC50 (Ba/F3^myr-Akt1 cells; [18])	IC50 (Akt3; [2])	IC50 (Akt3; [3]) [µM]	EC50 (parental Ba/F3 cells; [5]) [µM]	EC50 (parental Ba/F3 cells; [6])	IC50 (Akt2; [7])	IC50 (Akt2; [8]) [µM]	Log ratio EC50 [Akt] / EC50 [Akt], Akt3 / Akt2 (Ba/F3^myr-Akt3 cells)	EC50 (Ba/F3^myr-Akt1 cells; [16]) [µM]	Log ratio EC50 [Akt] / EC50 [Akt], Akt1 / Akt2 (Ba/F3^myr-Akt1 cells)	IC50 (Akt1; [19]) [µM]	IC50 (Akt1; [20])	IC50 (Akt1; [21]) [µM]	Log ratio IC50 [Akt] / IC50 [Akt], Akt1 / Akt2 (Akt1)	further results
C=CC(=O)Nc1ccc2[nH]c(=O)n(C3CCN(Cc4ccc(-c5ncc(C(=O)OC)cc5-c5ccccc5)cc4)CC3)c2c1 [compound 5]	2.71	3.75 µM and 1.35 µM and 1.68 µM	7.65	7.73	7.85 µM and 7.37 µM	4.92	4.17 µM and 4.75 µM	3.96 µM and 3.22 µM and 3.01 µM	3.4 ± 0.406	18.7	12.7 µM and 17.6 µM	0.119 µM and 0.116 µM and 0.114 µM	0.116 ± 0.002	-0.45	5.83	0.26	0.0355	0.038 µM and 0.0373 µM and 0.0312 µM	0.035 ± 0.004	-0.52	IC50 (Akt3; [1]): 3.4 µM; EC50 (parental Ba/F3 cells; [22]): 16.3 µM; IC50 (Akt2; [23]): 0.116 µM
C=CC(=O)Nc1ccc2[nH]c(=O)n(C3CCN(Cc4ccc(-c5ncc(C)cc5-c5ccccc5)cc4)CC3)c2c1 [compound 2]	2.79	3.99 µM and 1.13 µM and 1.58 µM	> 30	> 30	> 30 µM	3.1	3.52 µM and 2.96 µM	7.41 µM and 4.78 µM and 10.2 µM and 5.33 µM and 9.79 µM	7.51 ± 1.82	13.2	10.3 µM and 10.9 µM	0.156 µM and 0.149 µM and 0.144 µM	0.15 ± 0.005	-0.46	2.81	0.05	0.0218	0.0221 µM and 0.0229 µM and 0.0205 µM	0.022 ± 0.002	-0.83	IC50 (Akt3; [1]): 7.51 µM; EC50 (parental Ba/F3 cells; [22]): 11.5 µM; IC50 (Akt2; [23]): 0.15 µM; EC50 (Ba/F3^myr-Akt3 cells; Mus musculus, read-out: EC50 BaF3myr-Akt3, CTG): > 30 µM
NC1(c2ccc(-c3nc4ccn5c(=O)[nH]nc5c4cc3-c3ccccc3)cc2)CCC1 [MK-2206, reference compound]	1.34	1.97 µM and 0.931 µM and 1.12 µM	5.73	5.9	5.57 µM	1.12	0.987 µM and 1.22 µM	–	–	6.96	5.09 µM and 9.92 µM	–	–	–	1.16	–	–	–	–	–	EC50 (parental Ba/F3 cells; [22]): 7.39 µM
C=CC(=O)Nc1ccc2[nH]c(=O)n(C3CCN(Cc4ccc(-c5ncc(CN6CCCC6)cc5-c5ccccc5)cc4)CC3)c2c1 [compound 7]	1.78	1.58 µM and 3 µM and 1.35 µM and 1.19 µM	2.51	2.06	1.92 µM and 3.02 µM and 3.04 µM	4.71	4.27 µM and 4.14 µM and 6.2 µM	> 20 µM	> 20	6.97	8.01 µM and 10.4 µM	0.535 µM and 0.351 µM and 0.552 µM	0.479 ± 0.091	-0.15	4.23	0.42	7.09	10 µM and 10.5 µM and 4.2 µM and 7.74 µM and 8.28 µM and 1.75 µM	7.09 ± 3.44	1.17	IC50 (Akt3; [1]): > 20 µM; IC50 (Akt3; [4]): > 20 µM; EC50 (parental Ba/F3 cells; [22]): 8.46 µM; IC50 (Akt2; [23]): 0.479 µM
C=CC(=O)Nc1ccc2[nH]c(=O)n(C3CCN(Cc4ccc(-c5ncc(CNCC(C)C)cc5-c5ccccc5)cc4)CC3)c2c1 [compound 9]	13.6	12.5 µM	14.1	15.9	18.6 µM and 9.33 µM and 12.7 µM	> 30	> 30 µM	6.9 µM and 10.4 µM and 7.86 µM	8.37 ± 1.78	> 30	28.5 µM and > 30 µM	4.62 µM and 3.65 µM and 4.37 µM	4.21 ± 0.412	-0.02	> 30	0.34	5.93	6.84 µM and 5.56 µM and 5.38 µM	5.93 ± 0.793	0.15	IC50 (Akt3; [1]): 8.37 µM; IC50 (Akt2; [23]): 4.21 µM; EC50 (Ba/F3^myr-Akt2 cells; [10]): 17.2 µM; EC50 (Ba/F3^myr-Akt1 cells; [17]): > 30 µM

Further lines, with some results ahead:

EC50 (Ba/F3^myr-Akt2 cells; [9]) [µM]	EC50 (Ba/F3^myr-Akt2 cells; [11])	EC50 (Ba/F3^myr-Akt3 cells; [12]) [µM]	EC50 (Ba/F3^myr-Akt3 cells; [13]) [µM]	EC50 (Ba/F3^myr-Akt3 cells; [14])	EC50 (Ba/F3^myr-Akt1 cells; [15]) [µM]	EC50 (Ba/F3^myr-Akt1 cells; [18])	Structure (SMILES)	IC50 (Akt3; [2])	IC50 (Akt3; [3]) [µM]	EC50 (parental Ba/F3 cells; [5]) [µM]	EC50 (parental Ba/F3 cells; [6])	IC50 (Akt2; [7])	IC50 (Akt2; [8]) [µM]	Log ratio EC50 [Akt] / EC50 [Akt], Akt3 / Akt2 (Ba/F3^myr-Akt3 cells)	EC50 (Ba/F3^myr-Akt1 cells; [16]) [µM]	Log ratio EC50 [Akt] / EC50 [Akt], Akt1 / Akt2 (Ba/F3^myr-Akt1 cells)	IC50 (Akt1; [19]) [µM]	IC50 (Akt1; [20])	IC50 (Akt1; [21]) [µM]	Log ratio IC50 [Akt] / IC50 [Akt], Akt1 / Akt2 (Akt1)	further results
12.8	12.4 µM and 14.1 µM	26.5	23.6	28.3 µM and 27 µM	> 30	> 30 µM	C=CC(=O)Nc1ccc2[nH]c(=O)n(C3CCN(Cc4ccc(-c5ncc(C(=O)N6CCCC6)cc5-c5ccccc5)cc4)CC3)c2c1 [compound 8]	> 20 µM	> 20	17.3	20.7 µM and > 30 µM	1.92 µM and 4.34 µM and 2.21 µM	2.07 ± 0.147	-0.32	> 30	0.37	4.57	4.34 µM and 4.53 µM and 4.82 µM	4.57 ± 0.197	0.34	IC50 (Akt3; [1]): > 20 µM; IC50 (Akt3; [4]): > 20 µM; drop in affinity of the amide-linked version (7 vs. 8) (Akt2; Akt2, biochemical IC50): 5 fold; EC50 (Ba/F3^myr-Akt2 cells; [10]): 11.8 µM; EC50 (Ba/F3^myr-Akt1 cells; [17]): > 30 µM
3.75	4.24 µM and 2.81 µM	22	21.7	17.8 µM and 24.3 µM	> 30	> 30 µM	C=CC(=O)Nc1ccc2[nH]c(=O)n(C3CCN(Cc4ccc(-c5ncc(Cc6cccc(N)c6)cc5-c5ccccc5)cc4)CC3)c2c1 [compound 17]	1.48 µM and 2.41 µM and 2.43 µM	2.11 ± 0.441	> 30	> 30 µM	0.136 µM and 0.142 µM and 0.121 µM	0.133 ± 0.009	-0.77	> 30	0.90	2.85	2.55 µM and 3.9 µM and 2.12 µM	2.85 ± 0.758	1.33	IC50 (Akt3; [1]): 2.11 µM; EC50 (parental Ba/F3 cells; Mus musculus, BaF3, CTG, parental BaF3 cell line, read-out: EC50 BaF3): > 30 µM; EC50 (parental Ba/F3 cells; [22]): > 30 µM; IC50 (Akt2; [23]): 0.133 µM; EC50 (Ba/F3^myr-Akt2 cells; [10]): 3.2 µM; EC50 (Ba/F3^myr-Akt1 cells; [17]): > 30 µM
2.89	3.83 µM and 2.66 µM	7.44	6.61	7.03 µM and 8.07 µM	12.7	19.7 µM and 8.66 µM and 9.89 µM	C=CC(=O)Nc1ccc2[nH]c(=O)n(C3CCN(Cc4ccc(-c5ncc(Cc6ccc(N)cc6)cc5-c5ccccc5)cc4)CC3)c2c1 [compound 19]	2.03 µM and 1.41 µM and 1.09 µM	1.51 ± 0.389	–	6.98 µM and 7.49 µM and 18.8 µM	0.523 µM and 0.43 µM and 0.581 µM	0.511 ± 0.062	-0.41	–	0.64	1.8	1.9 µM and 1.84 µM and 1.65 µM	1.8 ± 0.105	0.55	loss of potency of the anilinic CAAI (Akt3; Akt3, biochemical IC50): 10 fold; IC50 (Akt3; [1]): 1.51 µM; EC50 (parental Ba/F3 cells; [22]): 12.5 µM; IC50 (Akt2; [23]): 0.511 µM; EC50 (Ba/F3^myr-Akt2 cells; [10]): 2.19 µM
14.3	11.5 µM and 13.9 µM and 23.9 µM and 7.94 µM	17.2	15.7	18.6 µM and 17.2 µM	26.7	22.1 µM	C=CC(=O)Nc1ccc2[nH]c(=O)n(C3CCN(Cc4ccc(-c5ncc(Cc6ccc(C)o6)cc5-c5ccccc5)cc4)CC3)c2c1 [compound 15]	4.83 µM and 5.38 µM and 2.87 µM	4.36 ± 1.08	> 30	> 30 µM and 25.7 µM	1.3 µM and 1.34 µM and 1.56 µM	1.4 ± 0.112	-0.08	28	0.27	0.604	0.57 µM and 0.597 µM and 0.645 µM	0.604 ± 0.031	-0.37	–
